These results are taken from patent US6121297A, “Cyanoguanidines as cell proliferation inhibitors” (Leo Pharmaceutical Products Ltd. A/S, priority 1997, dated 2000).

pIC50: −log10 of the molar value.

Holding throughout (assay type): cell-based
Experiment [1] concerns human non small cell lung cancer (NCI-H460). Kind of experiment: Inhibition of tumour cell proliferation in vitro, NCI-H460 ([3H]thymidine incorporation). The note with it: human NCI-H460 cells, 24 hours, DNA synthesis by [3H]thymidine incorporation. The procedure: (§1) The inhibition of tumour cell proliferation was studied using different types of human cancer cell lines. The cell lines under investigation were small cell lung carcinoma (NYH), non small cell lung carcinoma (NCI-H460), and breast cancer (MCF-7) using the following general procedure:
(§2) The cells were cultured in vitro for 24 hours in the presence of the compound under investigation. DNA synthesis was measured by incorporation of [3H]thymidine, and the median inhibitory concentrations (IC50) of the compounds were calculated.
Background: Uptake of a labelled nucleoside into DNA is a usual measure of proliferation.

Experiment [2] has as its system human breast cancer (MCF-7). Kind of experiment: Inhibition of tumour cell proliferation in vitro, MCF-7 ([3H]thymidine incorporation). The following applies: MCF7, human MCF-7 cells, 24 hours, DNA synthesis by [3H]thymidine incorporation. The procedure: as §1, §2
For experiment [3], the system named is human small cell lung carcinoma (NYH). Kind of experiment: Inhibition of tumour cell proliferation in vitro, NYH ([3H]thymidine incorporation). The note with it: human NYH cells, 24 hours, DNA synthesis by [3H]thymidine incorporation. The procedure: as §1, §2

For orientation: pIC50 means the IC50 on a negative log10 scale, so that one unit is a factor of ten. Lower therefore signals a large IC50.

For `N#CNC(=Nc1ccncc1)NCCCCCCCCCOc1ccccc1` [Example No. 4, N-Cyano-N'-(9-phenoxynonyl)-N"-4-pyridylguanidine], the pIC50 was 7.37 in experiment [1], 7.74 in experiment [2] and 8.28 in experiment [3].
For the compound `N#CNC(=Nc1ccncc1)NCCCCCCCCCCCOc1ccccc1` [Example No. 1, N-Cyano-N'-(11-phenoxyundecyl)-N"-4-pyridylguanidine], the values for the pIC50 in experiment [2] and in experiment [3] were 7.68 and 8.35, respectively.
On to `N#CNC(=Nc1ccncc1)NCCCCCCCCCCOc1ccccc1` [Example No. 3, N-Cyano-N'-(10-phenoxydecyl)-N"-4pyridylguanidine], for which the pIC50 in experiment [1] is 7.31; in experiment [2] it was 7.89; in experiment [3], 8.23.
On to `N#CN=C(NCCCCCOc1ccccc1)Nc1ccncc1` [Prior art B, NCyano-N(5-phenoxypentyl)-N4-pyridylguanidine, reference compound], for which the figures for the pIC50 in experiment [1], in experiment [2] and in experiment [3] were 7.17, 6.60 and 7.35, respectively.
Regarding `N#CN=C(NCCCCOc1ccccc1)Nc1ccncc1` [Prior art A, NCyano-N(4-phenoxybutyl)-N4-pyridylguanidine, reference compound], the pIC50 in experiment [1] is less than 6.00; in experiment [2], 6.04; in experiment [3], 6.42.
